From publication PMC10987480, “Biological and mutational analyses of CXCR4–antagonist interactions and design of new antagonistic analogs” (Bioscience Reports, 2023)

What was measured:
CXCR4 I284A = target: T1, CXCR4 I284A (Homo sapiens, UniProt P61073, I284A); assay: Competitive binding to CXCR4 mutant I284A (12G5, CHO cells); details: TM7, class of reduction vs wild-type CXCR4, 12G5 competition, averages of at least three independent experiments
T1 construct: expressed in transfected cells
Protocol: (§1) Plasmid pcDNA3-CXCR4 and mutated pcDNA3-CXCR4 were extracted and transfected into CHO cells using Lipofectamine 2000 according to the manufacturer’s guidelines. The selective medium containing G418 at a concentration of 1.2 mg/ml was applied to isolate stably transfected cells. CHO cells expressing wild-type CXCR4 and mutant CXCR4 were obtained using fluorescence-activated cell sorting (FACS).
(§2) All of the CXCR4 mutants were prepared using PCR technology. Briefly, pairs of asymmetrical primers containing the desired amino acid mutations (Supplementary Tables S1 and S2), each complementary to opposite strands of the pcDNA3–CXCR4, were designed for amplification by Q5® High-Fidelity DNA polymerase and the generation of mutated constructs. The methylated pcDNA3–CXCR4 templates were digested by DpnI. The mutated pcDNA3–CXCR4 was transformed into competent E. coli TOP10 for long-term storage and amplification.
(§3) The procedure for the CXCR4 competitive binding experiments was published previously. Briefly, CXCR4 antibody 12G5 (250 ng/ml) was incubated with 5 × 10^5 cells and varying concentrations of unlabeled compounds in a final volume of 100 μl of assay buffer (PBS with 0.5% BSA and 0.05% NaN3) in 96-well plates for 40 min on ice, after being washed with assay buffer once. The cells were incubated with FITC-conjugated second antibody IgG for 30 min on ice, then washed with assay buffer three times. The fluorescence intensity was measured for excitation at 485 nm and emission at 535 nm using multimode plate reader (PerkinElmer). The IC50 values were calculated using graphpad Prism 7. Experiments were performed at least three times.

CXCR4 D97A = target: T2, CXCR4 D97A (Homo sapiens, UniProt P61073, D97A); assay: Competitive binding to CXCR4 mutant D97A (12G5, CHO cells); details: TM2, class of reduction vs wild-type CXCR4, 12G5 competition, averages of at least three independent experiments
T2 construct: expressed in transfected cells
T2 sequence (P61073 whole entry D97A): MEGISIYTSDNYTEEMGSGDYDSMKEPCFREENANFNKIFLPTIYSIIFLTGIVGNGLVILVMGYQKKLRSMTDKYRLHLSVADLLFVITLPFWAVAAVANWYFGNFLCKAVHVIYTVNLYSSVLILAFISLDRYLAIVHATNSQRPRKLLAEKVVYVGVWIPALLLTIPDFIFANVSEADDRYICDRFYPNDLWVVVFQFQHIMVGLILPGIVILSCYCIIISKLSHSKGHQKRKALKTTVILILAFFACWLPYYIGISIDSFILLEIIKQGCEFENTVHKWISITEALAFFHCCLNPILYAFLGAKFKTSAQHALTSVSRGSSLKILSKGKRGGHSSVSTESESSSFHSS
Protocol: as §1, §2, §3

CXCR4 D193A = target: T3, CXCR4 D193A (Homo sapiens, UniProt P61073, D193A); assay: Competitive binding to CXCR4 mutant D193A (12G5, CHO cells); details: TM4, class of reduction vs wild-type CXCR4, 12G5 competition, averages of at least three independent experiments
T3 construct: expressed in transfected cells
T3 sequence (P61073 whole entry D193A): as the sequence (P61073 whole entry D97A) above, with A97D, D193A counted along it
Protocol: as §1, §2, §3

CXCR4 D262E = target: T4, CXCR4 D262E (Homo sapiens, UniProt P61073, D262E); assay: Competitive binding to CXCR4 mutant D262E (12G5, CHO cells); details: TM6, class of reduction vs wild-type CXCR4, 12G5 competition, averages of at least three independent experiments
T4 construct: expressed in transfected cells
T4 sequence (P61073 whole entry D262E): as the sequence (P61073 whole entry D97A) above, with A97D, D262E counted along it
Protocol: as §1, §2, §3

CXCR4 [1] = target: T5, CXCR4 (Homo sapiens, UniProt P61073); assay: SDF-1α-induced cell migration assay in SupT1 cells (transwell); format: cell-based; parameters: host or cells: SupT1 cells; details: SUP-T1, at 200 nM, 2 nM SDF-1α, 30 min pre-incubation, 3 h migration
T5 sequence (P61073 whole entry): as the sequence (P61073 whole entry D97A) above, with A97D counted along it
Protocol: (§4) Figure 2 The inhibitory effect of the antagonists on SDF-1α-induced cell chemotaxis and calcium mobilization in SupT1 cells The antagonists and concentrations used were labeled in each lane. (A) The inhibition of cell migration by the noted antagonists. SupT1 cells pre-treated with or without CXCR4 antagonists were seeded in the upper well and cell migrated by 2 nM SDF-1α. Migrated cells without SDF-1α were used as a negative (0%) and migrated cell induced by SDF-1α as a positive control (100%). […] SupT1 cells were treated with or without CXCR4 antagonists and activated by 50 nM SDF-1α. To directly compare the inhibitory effect of the antagonists on calcium mobilization, the vehicle background and baseline were removed using GraphPad and Origin. The data were averages of at least three independent experiments.
SupT1 cells (2 × 10^6 cells per well in 75 μl) were collected and washed using assay buffer (RPMI 1640 supplemented with 0.5% BSA) and incubated with various concentrations of tested compounds for 30 min in the upper well of the transwell-96 well plates with 5.0 µm pore polycarbonate membrane insert (Corning, U.S.A.). Then, 200 μl assay buffer containing 2 nM SDF-1α was added to the lower well and cells were allowed to migrate for 3 h. Migrated cells were measured using celltiter-96 reagent.

CXCR4 R30A = target: T6, CXCR4 R30A (Homo sapiens, UniProt P61073, R30A); assay: Competitive binding to CXCR4 mutant R30A (12G5, CHO cells); parameters: key to the marks not given beside the values; details: TM1, class of reduction vs wild-type CXCR4, 12G5 competition, averages of at least three independent experiments
T6 construct: expressed in transfected cells
T6 sequence (P61073 whole entry R30A): as the sequence (P61073 whole entry D97A) above, with R30A, A97D counted along it
Protocol: as §1, §2, §3

CXCR4 H281A = target: T7, CXCR4 H281A (Homo sapiens, UniProt P61073, H281A); assay: Competitive binding to CXCR4 mutant H281A (12G5, CHO cells); details: TM7, class of reduction vs wild-type CXCR4, 12G5 competition, averages of at least three independent experiments
T7 construct: expressed in transfected cells
T7 sequence (P61073 whole entry H281A): as the sequence (P61073 whole entry D97A) above, with A97D, H281A counted along it
Protocol: as §1, §2, §3

CXCR4 Y256A = target: T8, CXCR4 Y256A (Homo sapiens, UniProt P61073, Y256A); assay: Competitive binding to CXCR4 mutant Y256A (12G5, CHO cells); details: TM6, class of reduction vs wild-type CXCR4, 12G5 competition, averages of at least three independent experiments
T8 construct: expressed in transfected cells
T8 sequence (P61073 whole entry Y256A): as the sequence (P61073 whole entry D97A) above, with A97D, Y256A counted along it
Protocol: as §1, §2, §3

CXCR4 V112A = target: T9, CXCR4 V112A (Homo sapiens, UniProt P61073, V112A); assay: Competitive binding to CXCR4 mutant V112A (12G5, CHO cells); details: TM3, class of reduction vs wild-type CXCR4, 12G5 competition, averages of at least three independent experiments
T9 construct: expressed in transfected cells
T9 sequence (P61073 whole entry V112A): as the sequence (P61073 whole entry D97A) above, with A97D, V112A counted along it
Protocol: as §1, §2, §3

CXCR4 H113A = target: T10, CXCR4 H113A (Homo sapiens, UniProt P61073, H113A); assay: Competitive binding to CXCR4 mutant H113A (12G5, CHO cells); details: TM3, class of reduction vs wild-type CXCR4, 12G5 competition, averages of at least three independent experiments
T10 construct: expressed in transfected cells
T10 sequence (P61073 whole entry H113A): as the sequence (P61073 whole entry D97A) above, with A97D, H113A counted along it
Protocol: as §1, §2, §3

CXCR4 W252A = target: T11, CXCR4 W252A (Homo sapiens, UniProt P61073, W252A); assay: Competitive binding to CXCR4 mutant W252A (12G5, CHO cells); details: TM6, class of reduction vs wild-type CXCR4, 12G5 competition, averages of at least three independent experiments
T11 construct: expressed in transfected cells
T11 sequence (P61073 whole entry W252A): as the sequence (P61073 whole entry D97A) above, with A97D, W252A counted along it
Protocol: as §1, §2, §3

CXCR4 [2] = target: T5, CXCR4; assay: SDF-1α-induced calcium mobilization assay in SupT1 cells (Fluo-4); format: cell-based; parameters: host or cells: SupT1 cells; details: 50 nM SDF-1α
Protocol: as §4
SupT1 cells were collected and washed using HHBS buffer (Hanks’ Balanced Salt solution supplemented with 20 mM HEPES) and incubated with 1 mM probenecid (Energy Chemical, China) and 4 μM Fluo-4 (AAT bioquest, U.S.A.) for 37°C for 30 min with vortex every 5 min. After being washed with HHBS, cells were suspended in PBS at 2 × 10^6/ml and seeded 200 μl cells and various concentrations of compounds per well in 96-well plate. Following 50 nM SDF-1α was added to each well, the fluorescence intensity was measured (Ex/Em = 496/516 nm) using EnSpire® multimode plate reader (PerkinElmer, U.S.A.).

CXCR4 W161A = target: T12, CXCR4 W161A (Homo sapiens, UniProt P61073, W161A); assay: Competitive binding to CXCR4 mutant W161A (12G5, CHO cells); details: TM4, class of reduction vs wild-type CXCR4, 12G5 competition, averages of at least three independent experiments
T12 construct: expressed in transfected cells
T12 sequence (P61073 whole entry W161A): as the sequence (P61073 whole entry D97A) above, with A97D, W161A counted along it
Protocol: as §1, §2, §3

CXCR4 H203A = target: T13, CXCR4 H203A (Homo sapiens, UniProt P61073, H203A); assay: Competitive binding to CXCR4 mutant H203A (12G5, CHO cells); details: TM5, class of reduction vs wild-type CXCR4, 12G5 competition, averages of at least three independent experiments
T13 construct: expressed in transfected cells
T13 sequence (P61073 whole entry H203A): as the sequence (P61073 whole entry D97A) above, with A97D, H203A counted along it
Protocol: as §1, §2, §3

CXCR4 Y255A = target: T14, CXCR4 Y255A (Homo sapiens, UniProt P61073, Y255A); assay: Competitive binding to CXCR4 mutant Y255A (12G5, CHO cells); details: TM6, class of reduction vs wild-type CXCR4, 12G5 competition, averages of at least three independent experiments
T14 construct: expressed in transfected cells
T14 sequence (P61073 whole entry Y255A): as the sequence (P61073 whole entry D97A) above, with A97D, Y255A counted along it
Protocol: as §1, §2, §3

T1 sequence (P61073 whole entry I284A): as the sequence (P61073 whole entry D97A) above, with A97D, I284A counted along it

Competitive receptor binding activity, CXCR4 I284A (CXCR4 I284A)	inhibition at 0.2 µM (CXCR4 [1])	Competitive receptor binding activity, CXCR4 R30A (CXCR4 R30A)	Competitive receptor binding activity, CXCR4 Y256A (CXCR4 Y256A)	Competitive receptor binding activity, CXCR4 V112A (CXCR4 V112A)	Competitive receptor binding activity, CXCR4 W252A (CXCR4 W252A)	Inhibition of calcium mobilization (in words) (CXCR4 [2]; at 5 nM)	Competitive receptor binding activity, CXCR4 H203A (CXCR4 H203A)	inhibition at 0.005 µM (CXCR4 [2]; SUP-T1, at 5 nM)	SMILES	Competitive receptor binding activity, CXCR4 D97A (CXCR4 D97A)	Competitive receptor binding activity, CXCR4 D193A (CXCR4 D193A)	Competitive receptor binding activity, CXCR4 D262E (CXCR4 D262E)	Competitive receptor binding activity, CXCR4 H281A (CXCR4 H281A)	Competitive receptor binding activity, CXCR4 H113A (CXCR4 H113A)	Competitive receptor binding activity, CXCR4 W161A (CXCR4 W161A)	Competitive receptor binding activity, CXCR4 Y255A (CXCR4 Y255A)
+++	61%	+++	+++	+++	+++	very weak inhibition	+++	–	c1cc(CN2CCCNCCNCCCNCC2)ccc1CN1CCCNCCNCCCNCC1 [AMD3100]	++ (10–29% reduction compared with wild-type CXCR4)	++ (10–29% reduction compared with wild-type CXCR4)	+ (30–60% reduction compared with wild-type CXCR4)	+++	++ (10–29% reduction compared with wild-type CXCR4)	+++	++ (10–29% reduction compared with wild-type CXCR4)
+++	80%	+++	+++	+++	+++	–	+++	71%	NCCCCN(Cc1nc2ccccc2[nH]1)[C@H]1CCCc2cccnc21 [AMD11070]	+ (30–60% reduction compared with wild-type CXCR4)	+++	+++	++ (10–29% reduction compared with wild-type CXCR4)	+ (30–60% reduction compared with wild-type CXCR4)	++ (10–29% reduction compared with wild-type CXCR4)	+++
